Some results are limits rather than exact numbers.

Common to all, as to type: cell-based
The subject of test [1] is human gastric adenocarcinoma cells (AGS). Kind of test: MTT tumor cell proliferation inhibition test, AGS. To be noted: 48 hours treatment, read-out: Half Inhibitory Concentration IC50, AGS. An excerpt:
(§1) The compounds of the present invention were subjected to tumor cell proliferation inhibition test, and conventional MTT method was used. Cell lines used: non-small cell lung cancer cells (H1975), human hepatoma cells (HepG2), human glioma cells (U251), human gastric adenocarcinoma cells (AGS), human breast cancer cells (1590). The culture medium was DMEM+15% NBS+double antibody. […] Antitumor cytarabine (Ara-C) was used as control solution, prepared under the same condition. Cell culture: adherent growth Tumor cells were cultured in 1640 medium containing 10% inactivated neonatal bovine serum and penicillin, streptomycin (1 million U/L), placed in carbon dioxide incubator at 37° C., 5% CO2, and saturated humidity. Cells were treated serially passaged 2-3 times. The first culture was washed with PBS 2 times, and digested with trypsin. Fresh culture medium was added evenly, cells were adjusted to a appropriate concentration and transferred into a new culture flask. Cell in an exponential phase were chosen for the tests. MTT Assay for Cell Viability and IC50 Determination: Experimental Principle: Living cells mitochondria in the dehydrogenase can reduce yellow MTT to water-insoluble blue-violet product MT (MTT formazan), deposited in the cells. The amount of production is proportional to the number of living cells. […] DMSO can dissolve blue violet crystals, and the color depth is proportional to the amount contained, so the absorbance measured by the microplate reader can reflect the cell viability. Methods: The exponential phase cells were digested and counted and seeded in 96-well plates at a density of 2×10^4/mL at 100 μl per well. […] After another 4 hours, the supernatant was discarded, and 100 μl of DMSO was added to each well. After mixing, the absorbance was measured at 570 nm using a microplate reader. An IC50 calculation software was used to determine the half inhibitory concentration (IC50).

Test [2] has as its system human hepatoma cells (HepG2). As to the kind of experiment: MTT tumor cell proliferation inhibition test, HepG2. To be noted: 48 hours treatment, read-out: Half Inhibitory Concentration IC50, HepG2.
Excerpt: as §1

Test [3] relates to non-small cell lung cancer cells (H1975). As to the kind of experiment: MTT tumor cell proliferation inhibition test, H1975. Conditions: Homo sapiens, NCI-H1975, 48 hours treatment, read-out: Half Inhibitory Concentration IC50, H1975.
Excerpt: as §1

Test [4] concerns human glioma cells (U251). Kind of test: MTT tumor cell proliferation inhibition test, U251. Conditions: U-251, 48 hours treatment, read-out: Half Inhibitory Concentration IC50, U251.
Excerpt: as §1

Test [5] deals with human breast cancer cells (1590). As to the kind of experiment: MTT tumor cell proliferation inhibition test, 1590. To be noted: 48 hours treatment, 1590 cells, read-out: Half Inhibitory Concentration IC50, 1590.
Excerpt: as §1

In test [6] the test system is different cell lines. Kind of test: MTT tumor cell proliferation inhibition test, overall verdict. To be noted: summary in words of Table 1, different cell lines.
Excerpt: as §1

As to `Cc1cccc(/C=C\C(=O)OC2CCN3[C@@H]4C[C@@H](C[C@@H]3C2)N2CCCC[C@@H]2C4)c1` (stereo partly drawn) [Compound J, (Z)-(6S,7aR,13S,14aR)-tetradecahydro-6,13-methanodipyrido[1,2-a:1′,2′-e][1,5]diazocin-2-yl 3-(m-tolyl)acrylate], the IC50 in test [1] was above 100 µM; in test [2], 88.5 ± 1.26 µM; in test [3], 65 ± 1.89 µM; in test [4], 74.6 ± 2.94 µM; in test [5], 65.43 ± 0.47 µM.
As to `COc1cc(/C=C\C(=O)OC2CCN3[C@@H]4C[C@@H](C[C@@H]3C2)N2CCCC[C@@H]2C4)cc(OC)c1O` (stereo partly drawn) [Compound G, (Z)-(6S,7aR,13S,14aR)-tetradecahydro-6,13-methanodipyrido[1,2-a:1′,2′-e][1,5]diazocin-2-yl 3-(4-hydroxy-3,5-dimethoxyphenyl)acrylate], the IC50 is 59.4 ± 0.97 µM in test [1]; above 100 µM in test [2]; 55.48 ± 0.48 µM in test [3]; 37 ± 1.24 µM in test [4]; above 100 µM in test [5]. Further, the “in vitro antitumor activities” value in test [6] was “good in vitro antitumor activities”.
For the compound `Cc1ccccc1/C=C\C(=O)OC1CCN2[C@@H]3C[C@@H](C[C@@H]2C1)N1CCCC[C@@H]1C3` (stereo partly drawn) [Compound K, (Z)-(6S,7aR,13S,14aR)-tetradecahydro-6,13-methanodipyrido[1,2-a:1′,2′-e][1,5]diazocin-2-yl 3-(o-tolyl)acrylate], the IC50 in test [1] is 69.81 ± 0.06 µM; in test [2] it was above 100 µM; in test [3], 89.6 ± 1.34 µM; in test [4], above 100 µM; in test [5], above 100 µM.
For `Nc1ccn([C@@H]2O[C@H](CO)[C@@H](O)[C@@H]2O)c(=O)n1` [Ara-C, cytarabine, reference compound], the IC50 in test [1] was above 100 µM; in test [2], 20.6 ± 0.54 µM; in test [3] it was 19.2 ± 0.39 µM; in test [4] it was 39.2 ± 0.54 µM; in test [5] it was 76.3 ± 2.48 µM.
`O=C(/C=C\c1ccc(Cl)cc1)OC1CCN2[C@@H]3C[C@@H](C[C@@H]2C1)N1CCCC[C@@H]1C3` (stereo partly drawn) [Compound M, (Z)-(6S,7aR,13S,14aR)-tetradecahydro-6,13-methanodipyrido[1,2-a:1′,2′-e][1,5]diazocin-2-yl 3-(4-chlorophenyl)acrylate]: the IC50 in test [1] was 55.54 ± 0.044 µM; in test [2] it was 26.8 ± 1.24 µM; in test [3], above 100 µM; in test [4], 45.9 ± 1.82 µM; in test [5] it was 10.6 ± 1.33 µM. Further, the “in vitro antitumor activities” value in test [6] was “good in vitro antitumor activities”.
For `O=C(/C=C\c1ccc(O)c(O)c1)OC1CCN2[C@@H]3C[C@@H](C[C@@H]2C1)N1CCCC[C@@H]1C3` (stereo partly drawn) [Compound E, (Z)-(6S,7aR,13S,14aR)-tetradecahydro-6,13-methanodipyrido[1,2-a:1′,2′-e][1,5]diazocin-2-yl 3-(3,4-dihydroxyphenyl)acrylate], the IC50 in test [1] was above 100 µM; in test [2], above 100 µM; in test [3], 43.1 ± 1.24 µM; in test [4], 42.2 ± 0.88 µM; in test [5], 36.2 ± 1.98 µM. In test [6], the “in vitro antitumor activities” value is “good in vitro antitumor activities”.
For `O=C(/C=C\c1ccc(O)cc1)OC1CCN2[C@@H]3C[C@@H](C[C@@H]2C1)N1CCCC[C@@H]1C3` (stereo partly drawn) [Compound B, (Z)-(6S,7aR,13S,14aR)-tetradecahydro-6,13-methanodipyrido[1,2-a:1′,2′-e][1,5]diazocin-2-yl 3-(4-hydroxyphenyl)acrylate], the IC50 in test [1] is above 100 µM; in test [2], 53.69 ± 0.34 µM; in test [3], above 100 µM; in test [4], 74.98 ± 0.49 µM; in test [5] it was above 100 µM.
As to `Cc1ccc(/C=C\C(=O)OC2CCN3[C@@H]4C[C@@H](C[C@@H]3C2)N2CCCC[C@@H]2C4)cc1` (stereo partly drawn) [Compound H, (Z)-(6S,7aR,13S,14aR)-tetradecahydro-6,13-methanodipyrido[1,2-a:1′,2′-e][1,5]diazocin-2-yl 3-(p-tolyl)acrylate], the IC50 in test [1] is 35.7 ± 2.58 µM; in test [2] it was 51.1 ± 1.44 µM; in test [3] it was 29.9 ± 1.59 µM; in test [4], 75.4 ± 0.897 µM; in test [5], above 100 µM. Also, in test [6], the “in vitro antitumor activities” value is “good in vitro antitumor activities”.
As to `COc1cc(/C=C\C(=O)OC2CCN3[C@@H]4C[C@@H](C[C@@H]3C2)N2CCCC[C@@H]2C4)ccc1O` (stereo partly drawn) [Compound F, (Z)-(6S,7aR,13S,14aR)-tetradecahydro-6,13-methanodipyrido[1,2-a:1′,2′-e][1,5]diazocin-2-yl 3-(4-hydroxy-3-methoxyphenyl)acrylate], the IC50 in test [1] is above 100 µM; in test [2] it was above 100 µM; in test [3], above 100 µM; in test [4], above 100 µM; in test [5], 88.6 ± 2.12 µM.
Take `O=C(/C=C\c1cccc(O)c1)OC1CCN2[C@@H]3C[C@@H](C[C@@H]2C1)N1CCCC[C@@H]1C3` (stereo partly drawn) [Compound C, (Z)-(6S,7aR,13S,14aR)-tetradecahydro-6,13-methanodipyrido[1,2-a:1′,2′-e][1,5]diazocin-2-yl 3-(3-hydroxyphenyl)acrylate]: the IC50 in test [1] worked out at 26.3 ± 1.48 µM; in test [2], 73.55 ± 0.49 µM; in test [3] it was 23.7 ± 2.37 µM; in test [4], 5.49 ± 1.98 µM; in test [5], 43.2 ± 0.95 µM. Also, the “in vitro antitumor activities” value in test [6] is recorded as “good in vitro antitumor activities”.
As for `Cc1cc(/C=C\C(=O)OC2CCN3[C@@H]4C[C@@H](C[C@@H]3C2)N2CCCC[C@@H]2C4)ccc1O` (stereo partly drawn) [Compound I, (Z)-(6S,7aR,13S,14aR)-tetradecahydro-6,13-methanodipyrido[1,2-a:1′,2′-e][1,5]diazocin-2-yl 3-(4-hydroxy-3-methylphenyl)acrylate], the IC50 was 32.59 ± 0.29 µM in test [1]; 58.7 ± 1.78 µM in test [2]; above 100 µM in test [3]; 66.9 ± 1.84 µM in test [4]; above 100 µM in test [5]. Further, in test [6], the “in vitro antitumor activities” value is “good in vitro antitumor activities”.
Take `O=C(/C=C\c1ccccc1)OC1CCN2[C@@H]3C[C@@H](C[C@@H]2C1)N1CCCC[C@@H]1C3` (stereo partly drawn) [Compound A, (Z)-(6S,7aR,13S,14aR)-tetradecahydro-6,13-methanodipyrido[1,2-a:1′,2′-e][1,5]diazocin-2-yl 3-phenylacrylate]: the IC50 in test [1] is 20.3 ± 1.12 µM; in test [2] it was 36.6 ± 3.01 µM; in test [3], 16.9 ± 1.36 µM; in test [4], above 100 µM; in test [5], 32 ± 1.69 µM. In addition, the “in vitro antitumor activities” value in test [6] was “good in vitro antitumor activities”.

The record behind these values is patent publication US10233183B1, “13-hydroxysparteine cinnamic acid derivatives with anti-tumor activities and a method of preparing the same” (SHAANXI UNIVERSITY OF SCIENCE AND TECHNOLOGY, priority 2018, dated 2019).
